Source: patent US9328122B2, “7-substituted Hanfangichin B derivative, and preparation method and use thereof” (HANGZHOU BENSHENG PHARMACEUTICAL CO., LTD., priority 2012, dated 2016)
Converted amounts (≈) assume the structure as drawn.

Columns and labels:
[1] = test system: Becap-37 (human breast cancer) cells; assay: MTT cell growth inhibition, solid tumor cells; format: cell-based; conditions: for IC50 / IC90: Homo sapiens, Becap-37, 72 h, MTT; for IC50: read-out: IC50; for IC90: read-out: IC90; for anti-Becap37 activity increase over fangchinoline: relative to fangchinoline, Table 2
Method in brief: (§1)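 Viable cell levels were read by MTT after a 72 h exposure to varying compound concentrations at 37 °C in 5% CO2; cells (6000 per well) had been pre-cultured 24 h in DMEM high glucose containing 10% fetal bovine serum.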

[2] = test system: Hela (human cervical cancer) cells; assay: MTT cell growth inhibition, solid tumor cells; format: cell-based; conditions: for IC50 / IC90: Homo sapiens, Hela, 72 h, MTT; for IC50: read-out: IC50; for IC90: read-out: IC90
Method in brief: as §1

[3] = test system: MGC-803 (human gastric cancer) cells; assay: MTT cell growth inhibition, solid tumor cells; format: cell-based; conditions: MGC-803, 72 h, MTT; for IC50: read-out: IC50; for IC90: read-out: IC90
Method in brief: as §1

[4] = test system: KCL-22M transplanted tumor; assay: Transplanted tumor of leukemia in nude mice; format: in vivo, BALBc nude mice
Procedure: Leukemia cell lines: KCL-22M (human chronic myeloid leukemia mutant strain);
The mice were administered from the second day after the inoculation. […] The administrations were successive for 10 days. […] On Day 25, the mice were sacrificed and the tumors are taken out and weighed.

[5] = test system: Hep G2 transplanted tumor; assay: Transplanted tumor of liver cancer in nude mice
Procedure: Liver cancer cell lines: Hep G2 (human liver cancer cell line);
Animal: BALBc nude mice (immunodeficient mice), 8 weeks, female, purchased from Shanghai Laboratory Animal Center of Chinese Academy of Sciences, China.
Under sterile conditions, the Hep G2 cells in the logarithmic growth phase were respectively collected and injected subcutaneously in an amount of 2.3×10^7/0.2 mL/nude mice (cell viability >90%) into the left subaxillary of the nude mice, thus establishing a transplanted tumor model of liver cancer in nude mice. The mice were administered from the second day after inoculation. The experimental group was intragastrically administered with the experimentally designed amount, the negative control group was intragastrically administered with sterile water, and the positive control group was intragastrically administered with erlotinib hydrochloride. Each mouse was intragastrically administered in 0.4 ml each time and 3 times a day, at 8:00, 14:00 and 20:00, with 6-hour intervals. The administrations were successive for 10 days. The day before administration was deemed as Day 0 and the weight and tumor size of the mice were determined every 5 days to produce a dynamic plot on weight and tumor growth (the experimental results are presented as mean±SD). On Day 28, the mice were sacrificed and the tumors were taken out and weighed. The tumor inhibition rate (%) after the effect of the medicament was calculated based on a tumor inhibition rate of the control group being zero.
The experimental data for each group were analyzed by using the One-way ANOVA method in the SPSS 19.0 statistical software and were compared with the control group for significance of difference.

IC50 [1] [µg/mL]	IC90 [1] [µg/mL]	IC50 [2] [µg/mL]	IC90 [2] [µg/mL]	IC50 [3] [µg/mL]	IC90 [3] [µg/mL]	Compound	animal's weight during the administration (toxic and side effects) ([4]; 30 mg/kg/time, three administrations per day, weight rebounded after administration was stopped)	Mass of tumor ([4]; KCL-22M transplanted tumor, Day 25, 30 mg/kg/time intragastric 3 times a day for 10 days) [mg]	Tumor Inhibition rate ([4]; KCL-22M transplanted tumor, Day 25, 30 mg/kg/time intragastric 3 times a day for 10 days, control = 0) [%]	Body Weight (g) Initial ([4]; KCL-22M tumor nude mice, before administration, 30 mg/kg/time intragastric 3 times a day, mean±SD) [g]	Body Weight (g) Final ([4]; KCL-22M tumor nude mice, final, 30 mg/kg/time intragastric 3 times a day for 10 days, mean±SD) [g]	Mass of tumor ([5]; Hep G2 transplanted tumor, Day 28, intragastric 3 times a day for 10 days, BS-FC-308 35 mg/kg/time, erlotinib hydrochloride 20 mg/kg/time) [mg]	Tumor Inhibition rate ([5]; Hep G2 transplanted tumor, Day 28, intragastric 3 times a day for 10 days, BS-FC-308 35 mg/kg/time, erlotinib hydrochloride 20 mg/kg/time, control = 0) [%]	Body Weight (g) Initial ([5]; Hep G2 tumor nude mice, before administration, intragastric 3 times a day, BS-FC-308 35 mg/kg/time, erlotinib hydrochloride 20 mg/kg/time, mean±SD) [g]	Body Weight (g) Final ([5]; Hep G2 tumor nude mice, final, intragastric 3 times a day for 10 days, BS-FC-308 35 mg/kg/time, erlotinib hydrochloride 20 mg/kg/time, mean±SD) [g]	weight of the Hep G2 transplanted tumors (FIG. 3) ([5]; nude mice)	anti-Hela activity increase over fangchinoline ([2]; relative to fangchinoline, Table 2) [fold]	anti-Becap37 activity increase over fangchinoline [1] [fold]
1.53 (≈ 1.98 µM)	3.03 (≈ 3.92 µM)	0.5 (≈ 0.647 µM)	2.89 (≈ 3.74 µM)	1.4 (≈ 1.81 µM)	4.79 (≈ 6.2 µM)	COc1cc(OC)cc(C(=O)Oc2c(OC)cc3c4c2Oc2cc5c(cc2OC)CCN(C)[C@H]5Cc2ccc(cc2)Oc2cc(ccc2OC)C[C@@H]4N(C)CC3)c1 [BS-FC-311]											~4	
2.1 (≈ 2.74 µM)	3.79 (≈ 4.95 µM)	1.5 (≈ 1.96 µM)	3.35 (≈ 4.38 µM)	1.21 (≈ 1.58 µM)	3.02 (≈ 3.95 µM)	COc1ccc2cc1Oc1ccc(cc1)C[C@H]1c3cc(c(OC)cc3CCN1C)Oc1c(OC(=O)c3c(F)cccc3Cl)c(OC)cc3c1[C@H](C2)N(C)CC3 [BS-FC-315]												
0.59 (≈ 0.787 µM)	2.09 (≈ 2.79 µM)	0.9 (≈ 1.2 µM)	2.96 (≈ 3.95 µM)	0.4 (≈ 0.533 µM)	4.14 (≈ 5.52 µM)	COc1ccc2cc1Oc1ccc(cc1)C[C@H]1c3cc(c(OC)cc3CCN1C)Oc1c(OCC(O)CN3CCCCC3)c(OC)cc3c1[C@H](C2)N(C)CC3 (some centres unmarked) [BS-FC-403]												~3
0.74 (≈ 1.01 µM)	1.88 (≈ 2.55 µM)	1.25 (≈ 1.7 µM)	2 (≈ 2.72 µM)	0.88 (≈ 1.2 µM)	3.59 (≈ 4.88 µM)	COc1ccc2cc1Oc1ccc(cc1)C[C@H]1c3cc(c(OC)cc3CCN1C)Oc1c(OCC(O)CNCC3CC3)c(OC)cc3c1[C@H](C2)N(C)CC3 (some centres unmarked) [BS-FC-405]												~3
1.44 (≈ 1.96 µM)	4.8 (≈ 6.52 µM)	1.05 (≈ 1.43 µM)	3.52 (≈ 4.78 µM)	0.94 (≈ 1.28 µM)	16 (≈ 21.7 µM)	C=CCN(C)CC(O)COc1c(OC)cc2c3c1Oc1cc4c(cc1OC)CCN(C)[C@H]4Cc1ccc(cc1)Oc1cc(ccc1OC)C[C@@H]3N(C)CC2 (some centres unmarked) [BS-FC-409]												
0.73 (≈ 0.956 µM)	2.48 (≈ 3.25 µM)	1.33 (≈ 1.74 µM)	2.41 (≈ 3.15 µM)	0.49 (≈ 0.641 µM)	3.21 (≈ 4.2 µM)	COc1ccc2cc1Oc1ccc(cc1)C[C@H]1c3cc(c(OC)cc3CCN1C)Oc1c(OCC(O)CN3CCCC(C)C3)c(OC)cc3c1[C@H](C2)N(C)CC3 (some centres unmarked) [BS-FC-410]												~3
2.42 (≈ 3.15 µM)	6.16 (≈ 8.02 µM)	1.73 (≈ 2.25 µM)	4.47 (≈ 5.82 µM)	1.49 (≈ 1.94 µM)	12.9 (≈ 16.8 µM)	COc1ccc2cc1Oc1ccc(cc1)C[C@H]1c3cc(c(OC)cc3CCN1C)Oc1c(OCC(O)CN3CCSCC3)c(OC)cc3c1[C@H](C2)N(C)CC3 (some centres unmarked) [BS-FC-417]												
1.15 (≈ 1.48 µM)	3.96 (≈ 5.1 µM)	0.88 (≈ 1.13 µM)	2.78 (≈ 3.58 µM)	0.84 (≈ 1.08 µM)	4.44 (≈ 5.72 µM)	COc1ccc2cc1Oc1ccc(cc1)C[C@H]1c3cc(c(OC)cc3CCN1C)Oc1c(OCC(O)CN3CCN(C#N)CC3)c(OC)cc3c1[C@H](C2)N(C)CC3 (some centres unmarked) [BS-FC-421]												

Compound	IC50 [1] [µg/mL]	IC90 [1] [µg/mL]	IC50 [2] [µg/mL]	IC90 [2] [µg/mL]	IC50 [3] [µg/mL]	IC90 [3] [µg/mL]	animal's weight during the administration (toxic and side effects) ([4]; 30 mg/kg/time, three administrations per day, weight rebounded after administration was stopped)	Mass of tumor ([4]; KCL-22M transplanted tumor, Day 25, 30 mg/kg/time intragastric 3 times a day for 10 days) [mg]	Tumor Inhibition rate ([4]; KCL-22M transplanted tumor, Day 25, 30 mg/kg/time intragastric 3 times a day for 10 days, control = 0) [%]	Body Weight (g) Initial ([4]; KCL-22M tumor nude mice, before administration, 30 mg/kg/time intragastric 3 times a day, mean±SD) [g]	Body Weight (g) Final ([4]; KCL-22M tumor nude mice, final, 30 mg/kg/time intragastric 3 times a day for 10 days, mean±SD) [g]	Mass of tumor ([5]; Hep G2 transplanted tumor, Day 28, intragastric 3 times a day for 10 days, BS-FC-308 35 mg/kg/time, erlotinib hydrochloride 20 mg/kg/time) [mg]	Tumor Inhibition rate ([5]; Hep G2 transplanted tumor, Day 28, intragastric 3 times a day for 10 days, BS-FC-308 35 mg/kg/time, erlotinib hydrochloride 20 mg/kg/time, control = 0) [%]	Body Weight (g) Initial ([5]; Hep G2 tumor nude mice, before administration, intragastric 3 times a day, BS-FC-308 35 mg/kg/time, erlotinib hydrochloride 20 mg/kg/time, mean±SD) [g]	Body Weight (g) Final ([5]; Hep G2 tumor nude mice, final, intragastric 3 times a day for 10 days, BS-FC-308 35 mg/kg/time, erlotinib hydrochloride 20 mg/kg/time, mean±SD) [g]	weight of the Hep G2 transplanted tumors (FIG. 3) ([5]; nude mice)	anti-Hela activity increase over fangchinoline ([2]; relative to fangchinoline, Table 2) [fold]	anti-Becap37 activity increase over fangchinoline [1] [fold]
COc1ccc2cc1Oc1ccc(cc1)C[C@H]1c3cc(c(OC)cc3CCN1C)Oc1c(OC(=O)c3ccc(N(C)C)cc3)c(OC)cc3c1[C@H](C2)N(C)CC3 [BS-FC-308]	1.03 (≈ 1.36 µM)	1.95 (≈ 2.58 µM)	0.89 (≈ 1.18 µM)	1.9 (≈ 2.51 µM)	0.57 (≈ 0.754 µM)	1.99 (≈ 2.63 µM)	weight was reduced	521 ± 249	74.45	19.5 ± 0.2	15.4 ± 1.51	566 ± 112.26	55.82	21.8 ± 0.62	19.0 ± 0.49	significantly reduces		
